# Key:
# Assay in all cases: Liquid broth MIC in Fastidious broth
# Format in all cases: cell-based
# [1] = tested on: N. gonorrhoeae ATCC 49226; conditions: Neisseria gonorrhoeae, ATCC49226; N. gonorrhoeae strain ATCC 49226; Fastidious broth; read-out: Minimum Inhibitory Concentration, N. gonorrhoeae ATCC 49226
# Procedure: (§1) Example V: In Vitro Antibacterial Assays for N. gonorrhoeae Strains
# (§2) Additional antibacterial testing of the series was performed in 8 reference strains of N. gonorrhoeae (ATCC 49226, FA1090, WHO G, WHO L, WHO K, H041, WHO Z, and WHO Q). ATCC 49226, FA1090, WHO G, and WHO L produce wild type or wild-type like PBP2. WHO K, H041, WHO Z, and WHO Q produce mosaic PBP2. Liquid broth-based assays were used for antibacterial testing of PBP inhibitors in Neisseria gonorrhoeae. Briefly, cryo-preserved bacterial cultures of clinical strains were streaked for isolation on Chocolate Agar (72 g/L (2×) GC Agar Base (BD #228950) and 2% (2×) Hemoglobin was autoclaved at 121° C. for 20 minutes to sterilize. Once cooled to ˜50° C. the 2× GC Agar Base and 2× Hemoglobin solutions are combined and 1% IsoVitaleX Enrichment (BD #211876) was added to the solution). Strains were incubated at 36° C. and 5% CO2 to allow growth of colonies, 24 hours before inoculum preparation. 2-fold serial dilutions of test compounds were conducted in a 96 well plate with a final volume of 75 μL per well at 2-fold the final desired concentration in Fastidious broth (Remel #R07664). For preparation of assay inoculum, a direct suspension was prepared by aseptically swabbing all colonies from agar plates into culture tubes containing 2 mL of fresh sterile saline. After the dilution plates were set up, direct suspensions were then diluted in a cuvette containing sterile saline and the optical density was measured at 600 nm. Inocula were diluted such that 75 μL of this culture in Fastidious broth results in a starting bacterial concentration of 5×10^5 CFU/mL when added to the dilution plates. The plates were incubated for ˜24 hours at 36° C. and 5% CO2. The MIC was read visually as the lowest concentration well with <10% bacterial growth compared to wells of full growth.
# N. gonorrhoeae FA1090 = conditions: Neisseria gonorrhoeae; N. gonorrhoeae strain FA1090; Fastidious broth; read-out: Minimum Inhibitory Concentration, N. gonorrhoeae FA1090
# Procedure: as §1, §2
# N. gonorrhoeae H041 = conditions: Neisseria gonorrhoeae, H041, read-out: Minimum Inhibitory Concentration, N. gonorrhoeae H041
# Procedure: as §1, §2
# N. gonorrhoeae WHO G = conditions: Neisseria gonorrhoeae; N. gonorrhoeae strain WHO G; Fastidious broth; read-out: Minimum Inhibitory Concentration, N. gonorrhoeae WHO G
# Procedure: as §1, §2
# N. gonorrhoeae WHO K = conditions: Neisseria gonorrhoeae, read-out: Minimum Inhibitory Concentration, N. gonorrhoeae WHO K
# Procedure: as §1, §2
# N. gonorrhoeae WHO L = conditions: Neisseria gonorrhoeae; N. gonorrhoeae strain WHO L; Fastidious broth; read-out: Minimum Inhibitory Concentration, N. gonorrhoeae WHO L
# Procedure: as §1, §2
# N. gonorrhoeae WHO Q = conditions: Neisseria gonorrhoeae, read-out: Minimum Inhibitory Concentration, N. gonorrhoeae WHO Q
# Procedure: as §1, §2
# N. gonorrhoeae WHO Z = conditions: Neisseria gonorrhoeae, read-out: Minimum Inhibitory Concentration, N. gonorrhoeae WHO Z
# Procedure: as §1, §2
Structure (SMILES),MIC [1] [µg/mL],MIC (N. gonorrhoeae FA1090) [µg/mL],MIC (N. gonorrhoeae H041) [µg/mL],MIC (N. gonorrhoeae WHO G) [µg/mL],MIC (N. gonorrhoeae WHO K) [µg/mL],MIC (N. gonorrhoeae WHO L) [µg/mL],MIC (N. gonorrhoeae WHO Q) [µg/mL],MIC (N. gonorrhoeae WHO Z) [µg/mL]
"CCN1CCN(C(=O)NC(C(=O)N[C@H]2Cc3cccc(C(=O)O)c3OB2O)c2cccc(N)c2)C(=O)C1=O (stereo partly drawn) [Example 72, (3R)-3-(2-(3-aminophenyl)-2-(4-ethyl-2,3-dioxopiperazine-1-carboxamido)acetamido)-2-hydroxy-3,4-dihydro-2H-benzo[e][1,2]oxaborinine-8-carboxylic acid]",4 to 8,0.25 to 0.5,> 64,1 to 2,> 64,> 64,16 to 32,16 to 32
"NCCN1CCN(C(=O)N[C@H](C(=O)N[C@H]2Cc3cccc(C(=O)O)c3OB2O)c2ccc(C(=O)O)cc2)C(=O)C1=O (single isomer, unassigned) [Example 83]",16 to 32,1 to 2,> 64,4 to 8,> 64,> 64,> 64,> 64
"CCN1CCN(C(=O)N[C@@H](C(=O)N[C@H]2Cc3cccc(C(=O)O)c3OB2O)c2cc(Cl)c(O)cc2Cl)C(=O)C1=O (single isomer, unassigned) [Example 91]",16 to 32,0.25 to 0.5,16 to 32,1 to 2,16 to 32,> 64,16 to 32,16 to 32
"NC(=O)c1ccc(C(NC(=O)N2CCN(CCF)C(=O)C2=O)C(=O)N[C@H]2Cc3cccc(C(=O)O)c3OB2O)cc1O (stereo partly drawn) [Example 46, (3R)-3-(2-(4-carbamoyl-3-hydroxyphenyl)-2-(4-(2-fluoroethyl)-2,3-dioxopiperazine-1-carboxamido)acetamido)-2-hydroxy-3,4-dihydro-2H-benzo[e][1,2]oxaborinine-8-carboxylic acid]",1 to 2,< 0.125,16 to 32,0.25 to 0.5,16 to 32,16 to 32,16 to 32,16 to 32
"CCN1CCN(C(=O)NC(C(=O)N[C@H]2Cc3cccc(C(=O)O)c3OB2O)c2cc(O)ccc2O)C(=O)C1=O (stereo partly drawn) [Example 77, (3R)-3-(2-(2,5-dihydroxyphenyl)-2-(4-ethyl-2,3-dioxopiperazine-1-carboxamido)acetamido)-2-hydroxy-3,4-dihydro-2H-benzo[e][1,2]oxaborinine-8-carboxylic acid]",16 to 32,4 to 8,> 64,16 to 32,> 64,> 64,> 64,> 64
"CCN1CCN(C(=O)NC(C(=O)N[C@H]2Cc3cccc(C(=O)O)c3OB2O)c2cccc(O)c2)C(=O)C1=O (stereo partly drawn) [Example 68, (3R)-3-(2-(4-ethyl-2,3-dioxopiperazine-1-carboxamido)-2-(3-hydroxyphenyl)acetamido)-2-hydroxy-3,4-dihydro-2H-benzo[e][1,2]oxaborinine-8-carboxylic acid]",4 to 8,0.25 to 0.5,16 to 32,4 to 8,16 to 32,16 to 32,> 64,16 to 32
"CCN1CCN(C(=O)NC(C(=O)N[C@H]2Cc3ccc(CO)c(C(=O)O)c3OB2O)c2csc(N)n2)C(O)C1=O (stereo partly drawn) [Example 58, (3R)-3-(2-(2-aminothiazol-4-yl)-2-(4-ethyl-2-hydroxy-3-oxopiperazine-1-carboxamido)acetamido)-2-hydroxy-7-(hydroxymethyl)-3,4-dihydro-2H-benzo[el][1,2]oxaborinine-8-carboxylic acid]",> 64,> 64,> 64,> 64,> 64,> 64,> 64,> 64
"CCN1CCN(C(=O)N[C@@H](C(=O)N[C@H]2Cc3cccc(C(=O)O)c3OB2O)c2cc(O)cc(O)c2)C(=O)C1=O (single isomer, unassigned) [Example 82]",4 to 8,< 0.125,4 to 8,0.25 to 0.5,4 to 8,16 to 32,4 to 8,4 to 8
"CCN1CCN(C(=O)NC(C(=O)N[C@H]2Cc3ccc(OCCN)c(C(=O)O)c3OB2O)c2ccccc2)C(=O)C1=O (stereo partly drawn) [Example 60, (3R)-7-(2-aminoethoxy)-3-(2-(4-ethyl-2,3-dioxopiperazine-1-carboxamido)-2-phenylacetamido)-2-hydroxy-3,4-dihydro-2H-benzo[e][1,2]oxaborinine-8-carboxylic acid]",> 64,16 to 32,> 64,> 64,> 64,> 64,> 64,> 64
"CCN1CCN(C(=O)NC(C(=O)N[C@H]2Cc3cccc(C(=O)O)c3OB2O)c2ccc(C(=O)O)c(OC)c2)C(=O)C1=O (stereo partly drawn) [Example 48, (3R)-3-(2-(4-carboxy-3-methoxyphenyl)-2-(4-ethyl-2,3-dioxopiperazine-1-carboxamido)acetamido)-2-hydroxy-3,4-dihydro-2H-benzo[e][1,2]oxaborinine-8-carboxylic acid]",4 to 8,0.25 to 0.5,16 to 32,1 to 2,4 to 8,16 to 32,4 to 8,1 to 2
"NCCN1CCN(C(=O)N[C@@H](C(=O)N[C@H]2Cc3cccc(C(=O)O)c3OB2O)c2ccc(O)cc2F)C(=O)C1=O (single isomer, unassigned) [Example 89]",16 to 32,1 to 2,> 64,4 to 8,> 64,> 64,> 64,> 64
"CCN1CCN(C(=O)NC(C(=O)N[C@H]2Cc3ccc(F)c(C(=O)O)c3OB2O)c2nc(N)sc2F)C(=O)C1=O (stereo partly drawn) [Example 18, (3R)-3-(2-(2-amino-5-fluorothiazol-4-yl)-2-(4-ethyl-2,3-dioxopiperazine-1-carboxamido)acetamido)-7-fluoro-2-hydroxy-3,4-dihydro-2H-benzo[e][1,2]oxaborinine-8-carboxylic acid]",4 to 8,1 to 2,16 to 32,4 to 8,16 to 32,16 to 32,–,4 to 8
"CCN1CCN(C(=O)NC(C(=O)N[C@H]2Cc3cccc(C(=O)O)c3OB2O)c2ccc(O)cc2OC)C(=O)C1=O (stereo partly drawn) [Example 70, (3R)-3-(2-(4-ethyl-2,3-dioxopiperazine-1-carboxamido)-2-(4-hydroxy-2-methoxyphenyl)acetamido)-2-hydroxy-3,4-dihydro-2H-benzo[e][1,2]oxaborinine-8-carboxylic acid]",16 to 32,1 to 2,> 64,16 to 32,> 64,> 64,> 64,> 64
"CCN1CCN(C(=O)NC(C(=O)N[C@H]2Cc3cccc(C(=O)O)c3OB2O)c2ccc(N)c(F)c2)C(=O)C1=O (stereo partly drawn) [Example 50, (3R)-3-(2-(4-amino-3-fluorophenyl)-2-(4-ethyl-2,3-dioxopiperazine-1-carboxamido)acetamido)-2-hydroxy-3,4-dihydro-2H-benzo[e][1,2]oxaborinine-8-carboxylic acid]",1 to 2,< 0.125,16 to 32,1 to 2,16 to 32,16 to 32,–,–
"CCN1CCN(C(=O)N[C@H](C(=O)N[C@H]2Cc3cccc(C(=O)O)c3OB2O)c2nc(Cl)c(C(=O)O)cc2F)C(=O)C1=O [Example 19, 6-((S)-2-(((R)-8-carboxy-2-hydroxy-3,4-dihydro-2H-benzo[e][1,2]oxaborinin-3-yl)amino)-1-(4-ethyl-2,3-dioxopiperazine-1-carboxamido)-2-oxoethyl)-2-chloro-5-fluoronicotinic acid]",16 to 32,1 to 2,> 64,4 to 8,> 64,> 64,–,–

# From US20230114728A1 (Venatorx Pharmaceuticals, Inc., priority 2019, published 2023)
